Test results published in patent US11077090B2, “Compounds and compositions and uses thereof” (Sunovion Pharmaceuticals Inc., priority 2016, dated 2021).

What was measured:
Assay type in all cases: in vivo
[1] = system: Male C57Bl/6J mice; test: Marble burying test; design: key: −: No reduction in number of marbles buried; +: Significant reduction in number of marbles buried (P < 0.05 vs vehicle)
In short: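 Mice (n=10/group) dosed i.p. or p.o. with compound or water 30 min before a 30-min session in cages with twenty marbles; marbles at least two-thirds covered scored buried. Distance traveled tracked by overhead camera for locomotion; fewer marbles buried than vehicle indicates anxiolytic-like effect.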

[2] = system: compound-treated mice; test: Neuropharmacological assay (SmartCube): behavioral activity signature and minimal effective dose; details: for AD: ADHD (probability of activity signature) / AG: analgesic (probability of activity signature) / AX: anxiolytic (probability of activity signature) / CE: cognitive enhancer (probability of activity signature) / DP: anti-depressant (probability of activity signature) / MS: mood stabilizer (probability of activity signature) / PS: anti-psychotic (probability of activity signature) / SD: sedative hypnotic (probability of activity signature) / UN: uncharacterized CNS activity (probability of activity signature): i.p. 15 min before test, most efficacious dose(s)
In short: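 Video-recorded behavior is compared algorithmically against a reference-compound database, yielding class probabilities (best dose reported). Compounds given i.p. in NMP/PEG/propylene glycol 15 min pre-test at 3 doses; potency as MED, the dose (mpk, range usually 0.3–30) reaching ≥50% total activity.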

[3] = system: Male C57Bl/6J mice; test: Amphetamine induced hyperlocomotion assay; design: key: #: Significant increase in total distance traveled (P < 0.05 vs vehicle + AMPH group); −: No change in total distance traveled; Significant decrease in total distance traveled (P < 0.05 vs vehicle + AMPH group)
Experimental: Psychostimulants such as amphetamine (AMPH) are frequently used to induce or mimic a manic-like or psychotic-like state. AMPH administration to rodents increases horizontal locomotion, vertical rearing and repetitive stereotyped behaviors, and typical antipsychotic drugs, such as haloperidol, can reduce these behaviors. The antimanic/antipsychotic-like effects of test compounds were evaluated in male C57Bl/6J mice from Jackson Laboratories Mice were acclimatized to the experimental room for at least 1 hour prior to testing. The mice (n=10 per group) were administered vehicle or test compound orally by gavage (10 mL/kg injection volume) and placed individually in the novel open field (OF) chambers (Med Associates) for 30 minutes of baseline activity measurement. Mice were then injected with either water or AMPH (4 mg/kg, i.p., 10 mL/kg) and placed back in the same individual OF chambers for a 60-minute testing session during which the effects of test compounds on stimulant-induced behaviors (total distance traveled, rearing and stereotypy) were measured. A reduction in total distance traveled relative to the vehicle+AMPH condition indicates an antimanic/antipsychotic drug-like response.

[4] = MED = dose having 50% or more total activity

Structure (SMILES) | Marbles Buried ([1]; 3 mg/kg (p.o.)) | Marbles Buried ([1]; 10 mg/kg (p.o.)) | Marbles Buried ([1]; 30 mg/kg (p.o.)) | minimal effective dose ([2]; Mus musculus, ip, MED = dose having 50% or more total activity, read-out: Potency: minimal effective dose (MED)) [mg/kg] | AD: ADHD (probability of activity signature) [2] | AG: analgesic (probability of activity signature) [2] | AX: anxiolytic (probability of activity signature) [2] | CE: cognitive enhancer (probability of activity signature) [2] | DP: anti-depressant (probability of activity signature) [2] | MS: mood stabilizer (probability of activity signature) [2] | PS: anti-psychotic (probability of activity signature) [2] | SD: sedative hypnotic (probability of activity signature) [2] | UN: uncharacterized CNS activity (probability of activity signature) [2] | Total Distance Traveled ([3]; 3 mg/kg PO Compound + AMPH) | Total Distance Traveled ([3]; 10 mg/kg PO Compound + AMPH) | Total Distance Traveled ([3]; 30 mg/kg PO Compound + AMPH) | Potency: minimal effective dose (MED) [2, 4]
N[C@@H]1COCc2ccccc21 (single isomer, unassigned) [Example 111] | − | + | + | 3 to 10 | + (LOQ ≤ + <5%) | ++ (5% ≤ ++ <25%) | ++ (5% ≤ ++ <25%) | ++ (5% ≤ ++ <25%) | ++ (5% ≤ ++ <25%) | + (LOQ ≤ + <5%) | ++ (5% ≤ ++ <25%) | + (LOQ ≤ + <5%) | +++ (25% ≤ +++ <50%) | # | − | + | 
Cc1ccc2c(c1)[C@H](N)COC2 [Example 123] |  | + | + |  | + (LOQ ≤ + <5%) | ++ (5% ≤ ++ <25%) | ++ (5% ≤ ++ <25%) | + (LOQ ≤ + <5%) | ++ (5% ≤ ++ <25%) | + (LOQ ≤ + <5%) | ++ (5% ≤ ++ <25%) | ++ (5% ≤ ++ <25%) | +++ (25% ≤ +++ <50%) |  | − | + | A (≤3 mpk)
N[C@@H]1COCc2ccc3ccccc3c21 (single isomer, unassigned) [Example 117] | + | + | + |  | + (LOQ ≤ + <5%) | ++ (5% ≤ ++ <25%) | ++ (5% ≤ ++ <25%) | ++ (5% ≤ ++ <25%) | ++ (5% ≤ ++ <25%) | ++ (5% ≤ ++ <25%) | +++ (25% ≤ +++ <50%) | + (LOQ ≤ + <5%) | + (LOQ ≤ + <5%) |  | − | + | B (>3 to 10 mpk)
Cc1ccc2c(c1)[C@@H](N)COC2 [Example 124] |  | + | + |  | + (LOQ ≤ + <5%) | ++ (5% ≤ ++ <25%) | +++ (25% ≤ +++ <50%) | ++ (5% ≤ ++ <25%) | ++ (5% ≤ ++ <25%) | + (LOQ ≤ + <5%) | ++ (5% ≤ ++ <25%) | ++ (5% ≤ ++ <25%) | +++ (25% ≤ +++ <50%) |  | − | + | B (>3 to 10 mpk)
N[C@H]1COCc2ccc(F)cc21 (single isomer, unassigned) [Example 114] | + | + | + |  | + (LOQ ≤ + <5%) | ++ (5% ≤ ++ <25%) | ++ (5% ≤ ++ <25%) | ++ (5% ≤ ++ <25%) | ++ (5% ≤ ++ <25%) | + (LOQ ≤ + <5%) | ++ (5% ≤ ++ <25%) | + (LOQ ≤ + <5%) | +++ (25% ≤ +++ <50%) |  | − | + | C (>10 to ≤30 mpk)
N[C@H]1COCc2ccc3ccccc3c21 (single isomer, unassigned) [Example 118] |  | + | + |  | + (LOQ ≤ + <5%) | ++ (5% ≤ ++ <25%) | ++ (5% ≤ ++ <25%) | ++ (5% ≤ ++ <25%) | +++ (25% ≤ +++ <50%) | + (LOQ ≤ + <5%) | ++ (5% ≤ ++ <25%) | ++ (5% ≤ ++ <25%) | + (LOQ ≤ + <5%) |  | − | + | B (>3 to 10 mpk)
